Biological target: T1, liver carnitine palmitoyl transferase 1 (L-CPT1) (Homo sapiens, UniProt P50416)
T1 construct: made in house; host or cells: Pichia pastoris strain X-33 (crude cell-free extract)
T1 sequence (P50416 1-773): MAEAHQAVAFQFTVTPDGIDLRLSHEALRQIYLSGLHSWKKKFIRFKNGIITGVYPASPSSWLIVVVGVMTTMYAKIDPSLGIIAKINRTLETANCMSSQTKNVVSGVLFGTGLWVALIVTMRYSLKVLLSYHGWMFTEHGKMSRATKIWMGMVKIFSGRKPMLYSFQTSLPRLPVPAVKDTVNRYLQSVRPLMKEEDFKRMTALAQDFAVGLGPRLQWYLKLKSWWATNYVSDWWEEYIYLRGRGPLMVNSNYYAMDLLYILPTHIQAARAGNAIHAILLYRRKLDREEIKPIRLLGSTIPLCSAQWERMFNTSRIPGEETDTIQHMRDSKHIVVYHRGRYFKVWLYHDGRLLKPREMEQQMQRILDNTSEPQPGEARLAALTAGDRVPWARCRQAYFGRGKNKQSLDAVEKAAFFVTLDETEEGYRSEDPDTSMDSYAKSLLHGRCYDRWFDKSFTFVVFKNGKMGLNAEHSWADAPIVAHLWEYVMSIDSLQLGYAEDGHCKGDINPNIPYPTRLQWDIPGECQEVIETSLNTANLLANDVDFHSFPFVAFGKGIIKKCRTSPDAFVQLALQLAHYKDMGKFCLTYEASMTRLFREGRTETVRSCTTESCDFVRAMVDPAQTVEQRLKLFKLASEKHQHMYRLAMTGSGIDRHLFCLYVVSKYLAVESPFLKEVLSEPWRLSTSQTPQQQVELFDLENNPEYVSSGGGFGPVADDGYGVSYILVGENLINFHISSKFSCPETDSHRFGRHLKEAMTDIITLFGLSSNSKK
Assay: L-CPT1 inhibition, spectrophotometric DTNB (Ellman's reagent) CPT activity assay
Format: biochemical
Protocol: The following tests were carried out in order to determine the activity of the compounds of the present invention. Background information on the performed assays can be found in: Jackson et al., 1999, Biochem. J. 341, 483-489 and Jackson et al., 2000, J. Biol. Chem. 275, 19560-19566.
Human liver and muscle CPT1 cDNAs and rat CPT2 cDNA were subcloned in pGAPZB or pGAPZA, respectively. These plasmids were used to transform P. pastoris strain X-33 via electroporation after the preparation of electrocompetent cells. High copy number clones were selected where necessary using 0.5 or 1 mg/ml Zeocin. Cultures for activity measurements were induced for 16 h in YPD medium (1% yeast extract, 2% peptone, 2% glucose). Crude cell extracts were prepared by disrupting the cells with glass beads or French Press, depending on fermenter sizes. After centrifugation, the cell-free extracts were resuspended in cell breaking buffer (50 mM Tris, pH7.4, 100 mM KCl, 1 mM EDTA) in the presence of a protease inhibitor cocktail, before aliquoting and freezing at −20° C.
CPT activity was measured using a spectrophotometric assay using 5,5′-dithio-bis-(2-nitrobenzoic acid) (DTNB) also called Ellman's reagent. The HS-CoA released on the formation of acylcarnitine from carnitine (500 μM) and palmitoyl-CoA (80 μM) reduced DTNB (300 μM) forming 5-mercapto-(2-nitrobenzoic acid) which absorbed at 410 nm with a molar coefficient extinction of 13600 M^−1.cm^−1. The assay buffer contained 120 mM KCl, 25 mM Tris, pH 7.4, 1 mM EDTA. This assay was used for the identification of selective inhibitors of the liver CPT1 isoform versus the muscle CPT1 and CPT2 isoforms.

| IC50 [nM] | SMILES |
| --- | --- |
| 66 | COc1ccc(-c2noc([C@H]3CCCCN3C(=O)COc3ccccc3)n2)cc1 [Example 1, (R)-1-{2-[3-(4-Methoxy-phenyl)-[1,2,4]oxadiazol-5-yl]-piperidin-1-yl}-2-phenoxy-ethanone] |
| 260 | O=C(COc1ccccc1)N1CCCC[C@@H]1c1nc(-c2ccc(F)cc2)no1 [Example 10, (R)-1-{2-[3-(4-Fluoro-phenyl)-[1,2,4]oxadiazol-5-yl]-piperidin-1-yl}-2-phenoxy-ethanone] |

| SMILES | IC50 [nM] |
| --- | --- |
| COc1ccc(-c2n[nH]c([C@H]3CN(C)CCN3C(=O)COc3ccccc3)n2)cc1 [Example 172, (R)-1-{2-[5-(4-Methoxy-phenyl)-2H-[1,2,4]triazol-3-yl]-4-methyl-piperazin-1-yl}-2-phenoxy-ethanone] | 242 |

Source: patent US7645776B2, “Heteroaryl substituted piperidine derivatives which are L-CPT1 inhibitors” (Hoffmann-La Roche Inc., priority 2005, dated 2010)
